This passage reports GI50 and TGI results from PubChem BioAssay (NCI).

“And” between values parts separate entries of the source, which are not always exact repeats. Equal values may be shown once.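 Step 1: Grow cells in 96-well plates. Step 2: Expose to compound for 48 hours at 5 concentrations. Step 3: Interpolate endpoints linearly; if unreached, use highest concentration. The concentration for 50% growth inhibition is given as GI50. TGI is the concentration that stops growth completely.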 A value given as a limit tells only on which side of the number the result lay.

Test systems include A549 NSCLC; DU-145 prostate; HCT-15 colon; HT29 colon; MDA-MB-435; NCI-H522 lung; SK-MEL-2 melanoma; SK-MEL-28 melanoma; K-562 leukemia; CCRF-CEM leukemia.
Common to all, as to assay: inhibition of tumour cell growth, NCI panel, 48 h

Regarding `COc1cnc2c(c1)C(=O)c1c-2n(CCCn2ccnc2)c(=O)c2cc(F)ccc12`, the GI50 in the assay on A549 NSCLC is 0.0209 µM; with DU-145 prostate, below 0.01 µM; with HCT-15 colon it was 0.155 µM; in the assay with HT29 colon, 0.013 µM; in the assay on MDA-MB-435, 0.121 µM; in the assay with NCI-H522 lung, below 0.01 µM. The results for the GI50 in the assay with SK-MEL-2 melanoma and in the assay on SK-MEL-28 melanoma were 0.232 µM and 0.191 µM, respectively. The TGI in the assay with A549 NSCLC turned out to be 1.5 µM; in the assay with DU-145 prostate, 1.17 µM; in the assay on HCT-15 colon, 1.56 µM; in the assay on HT29 colon, 0.226 µM; in the assay on MDA-MB-435, 0.832 µM; with NCI-H522 lung it was 0.169 µM. The TGI with SK-MEL-2 melanoma was found to be 0.449 µM; in the assay on SK-MEL-28 melanoma it was 1.3 µM.
On to `CN(CCCn1c2c(c3ccccc3c1=O)C(=O)c1ccccc1-2)CCCn1c2c(c3ccccc3c1=O)C(=O)c1ccccc1-2`, for which the GI50 with A549 NSCLC was 1.13 µM; with HCT-15 colon, 0.229 µM; with K-562 leukemia, 0.335 µM; in the assay with MDA-MB-435, 1.56 µM; with SK-MEL-2 melanoma, 27.6 µM; with SK-MEL-28 melanoma, 1.28 µM. Besides, the TGI with A549 NSCLC is 4.21 µM; in the assay on HCT-15 colon, 2.62 µM; with MDA-MB-435, 17.8 µM; in the assay on NCI-H522 lung, above 100 µM; in the assay on SK-MEL-2 melanoma, above 51.8 µM.
For the compound `COc1cc2c(cc1C)NC(=O)/C2=C/c1ccccn1`, the GI50 with A549 NSCLC was 4.11 µM; with CCRF-CEM leukemia, 0.782 µM; with HT29 colon, 5.47 µM; in the assay with K-562 leukemia, 2.71 µM; with MDA-MB-435, 3.77 µM; in the assay on NCI-H522 lung, 3.37 µM. Besides, the GI50 is above 100 µM with SK-MEL-2 melanoma and 10.5 µM with SK-MEL-28 melanoma. The TGI in the assay on A549 NSCLC, with CCRF-CEM leukemia, with HT29 colon, with K-562 leukemia, with MDA-MB-435 and with NCI-H522 lung was above 100 µM each time. For the same compound, the TGI with SK-MEL-2 melanoma and in the assay with SK-MEL-28 melanoma was above 100 µM each time.
On to `COc1ccc(-c2cc(=O)[nH]c3c(OC)c4ccccc4c(OC)c23)cc1`, for which the GI50 with A549 NSCLC is 0.708 µM; with CCRF-CEM leukemia, 0.401 µM; in the assay with DU-145 prostate, 0.671 µM; in the assay on HCT-15 colon it was 0.419 µM; with HT29 colon, 0.342 µM; in the assay with K-562 leukemia it was 0.346 µM. Further, the GI50 in the assay with NCI-H522 lung was 0.284 µM; in the assay on SK-MEL-2 melanoma, 0.486 µM; with SK-MEL-28 melanoma, 3.45 µM. Also, the TGI in the assay on A549 NSCLC is above 100 µM; in the assay with CCRF-CEM leukemia, above 100 µM; with DU-145 prostate, above 100 µM; with HCT-15 colon, above 100 µM; with K-562 leukemia it was above 100 µM; in the assay on NCI-H522 lung, 3.26 µM. For the same compound, the TGI in the assay with SK-MEL-2 melanoma and in the assay on SK-MEL-28 melanoma was above 100 µM throughout.
Take `CCC[CH2][Sn]1([CH2]CCC)[O]C(=O)c2cccnc2[O]1`: the GI50 is 18.2 µM in the assay on A549 NSCLC; 0.731 µM in the assay with CCRF-CEM leukemia; 1.9 µM with HCT-15 colon; 5.97 µM in the assay on HT29 colon; 1.85 µM in the assay with K-562 leukemia; 0.476 µM with NCI-H522 lung. Also, the GI50 is 1.71 µM in the assay with SK-MEL-2 melanoma and 3.92 µM with SK-MEL-28 melanoma. The TGI in the assay on A549 NSCLC stood at 33 µM; with CCRF-CEM leukemia it was 3.08 µM; with HCT-15 colon, 3.66 µM; in the assay with HT29 colon it was 19.5 µM; in the assay on K-562 leukemia, 6.01 µM; in the assay with NCI-H522 lung, 1.67 µM. Further, the TGI in the assay on SK-MEL-2 melanoma is 3.81 µM; in the assay with SK-MEL-28 melanoma, 11.9 µM.
In the case of `COc1cc2ccc(/C=C\[N+](=O)[O-])cc2cc1OC`, the TGI in the assay with A549 NSCLC is 29.8 µM; in the assay on DU-145 prostate, 4.39 µM; with HCT-15 colon, 17.2 µM; in the assay with HT29 colon, 4 µM; in the assay on K-562 leukemia, above 24.6 µM; with MDA-MB-435 it was 7.63 µM. For the same compound, the TGI in the assay on NCI-H522 lung came out at 3.4 µM; in the assay on SK-MEL-2 melanoma, 9.43 µM; with SK-MEL-28 melanoma it was 7.51 µM.
For `CC(=O)OCC1OC(n2cnc(C(N)=S)c2N)C(OC(C)=O)C1OC(C)=O` (stereo not drawn), the TGI with A549 NSCLC, in the assay on CCRF-CEM leukemia, in the assay with DU-145 prostate, in the assay with HCT-15 colon, with HT29 colon and with MDA-MB-435 was above 100 µM in each case. In addition, the TGI in the assay with NCI-H522 lung, in the assay with SK-MEL-2 melanoma and with SK-MEL-28 melanoma was above 100 µM each time.
For the compound `COc1ccc2n[se]nc2c1`, the TGI with A549 NSCLC, in the assay with CCRF-CEM leukemia, in the assay with HCT-15 colon, in the assay on HT29 colon, with K-562 leukemia and in the assay on NCI-H522 lung was above 100 µM throughout. The TGI in the assay with SK-MEL-2 melanoma and in the assay on SK-MEL-28 melanoma was above 100 µM each time.
In the case of `COc1cc(C(=O)O[C@H](C(=O)NCCCCCNC(=O)[C@@H](OC(=O)c2cc(OC)cc3c(C)cccc23)[C@]2(C)CO2)[C@]2(C)CO2)c2cccc(C)c2c1`, the GI50 was 0.447 µM in the assay on A549 NSCLC; 0.122 µM in the assay with DU-145 prostate; 0.174 µM with HCT-15 colon; 0.182 µM in the assay with HT29 colon; 0.437 µM in the assay on K-562 leukemia; 0.016 µM in the assay with MDA-MB-435. For the same compound, the figures for the GI50 with NCI-H522 lung, with SK-MEL-2 melanoma and in the assay on SK-MEL-28 melanoma were 0.565 µM, 0.2 µM and 0.205 µM, respectively. The TGI in the assay with A549 NSCLC was 10.2 µM; in the assay on HCT-15 colon it was 2.13 µM; with HT29 colon, above 100 µM; in the assay on K-562 leukemia, above 36.3 µM; with MDA-MB-435, 0.0913 µM; in the assay on NCI-H522 lung, above 22.3 µM.
With `CCC(C)(CC(C)(C)C(=O)NCC(=O)NC(Cc1ccccc1)C(=O)NC(Cc1ccccc1)C(=O)NCC(=O)NC1CC(OC2CC(O)(C(=O)CO)Cc3c(O)c4c(c(O)c32)C(=O)c2c(OC)cccc2C4=O)OC(C)C1O)C(=O)NCC(C)O` (stereo not drawn), the GI50 is 3.35 µg/mL and 98.9 µg/mL in the assay with CCRF-CEM leukemia; 121 µg/mL with DU-145 prostate; 1.5 µg/mL with HCT-15 colon; 91.9 µg/mL with HT29 colon; 86.3 µg/mL with K-562 leukemia; above 150 µg/mL in the assay with MDA-MB-435. Further, the GI50 in the assay with NCI-H522 lung is 45.5 µg/mL; in the assay on SK-MEL-2 melanoma it was 127 µg/mL; with SK-MEL-28 melanoma it was above 150 µg/mL. For the same compound, the TGI in the assay with CCRF-CEM leukemia is above 150 µg/mL; with DU-145 prostate, above 150 µg/mL; in the assay on HCT-15 colon it was 1.5 µg/mL; with HT29 colon, above 150 µg/mL; with K-562 leukemia, above 150 µg/mL; in the assay on MDA-MB-435, above 150 µg/mL. The TGI in the assay with NCI-H522 lung, with SK-MEL-2 melanoma and with SK-MEL-28 melanoma was above 150 µg/mL each time.
On to `COc1ccc(Br)c(N/N=C2\CCCNC2=O)c1`, for which the TGI with A549 NSCLC, in the assay with CCRF-CEM leukemia, with HCT-15 colon, with HT29 colon, with K-562 leukemia and in the assay with NCI-H522 lung was above 100 µM throughout. Further, the TGI in the assay with SK-MEL-2 melanoma and in the assay on SK-MEL-28 melanoma was above 100 µM throughout.
